Values after ≈ are worked out from the molar mass of the structure shown.
How the values were obtained:
[1] = system: S. agalactiae (group B) ATCC 12400; experiment: MIC, microdilution method (9.1); assay type: cell-based, Streptococcus agalactiae; details: Streptococcus agalactiae, ATCC12400, 18 h, read-out: MIC
Protocol: (§1) The microdilution method recommended by the Clinical and Laboratory Standard Institute [M07-A8, Vol. 29, No. 2] was used. The activity of indolic compounds was tested against 29 bacterial strains belonging to 17 different species and 12 different genera (Staphylococcus, Streptococcus, Enterococcus, Listeria, Bacillus, Haemophilus, Escherichia, Klebsiella, Enterobacter, Serratia, Pseudomonas, and Acinetobacter). Bacterial inocula were prepared in Mueller Hinton broth (MH2, bioMérieux, Marcy L'Etoile, France), supplemented with 10% sheep blood for fastidious species (i.e., Streptococcus pneumoniae and Haemophilus influenzae). They were dispensed in 96 well microtiter plates (5×10^5 CFU/ml of final inoculum). Indolic compounds were added to the wells as to obtain two-fold serial concentrations (0.50-128 mg/L of final concentrations). Plates were incubated at 37° C. in ambient air, or at 37° C. in 5% CO2 enriched atmosphere for fastidious species. […] Drug-free cultures served as growth controls. Cultures receiving gentamicin, ciprofloxacin or cefotaxime served as positive controls.

S. pneumoniae ATCC 6303 = experiment: MIC, microdilution method (9.1); assay type: cell-based, Streptococcus pneumoniae; details: Streptococcus pneumoniae, ATCC6303, 10% sheep blood, 5% CO2, 18 h, read-out: MIC
Protocol: as §1

E. faecium CIP 54.32 = experiment: MIC, microdilution method (9.1); assay type: cell-based, Enterococcus faecium; details: Enterococcus faecium, CIP54, 18 h, read-out: MIC
Protocol: as §1

[2] = system: Acinetobacter baumanii ATCC 19606; experiment: MIC, microdilution method (9.1); assay type: cell-based; details: Acinetobacter baumannii, ATCC19606, 18 h, read-out: MIC
Protocol: as §1

[3] = system: Enterobacter cloacae ATCC13047; experiment: MIC, microdilution method (9.1); assay type: cell-based; details: 18 h
Protocol: as §1

[4] = system: Bacillus subtilis CIP 5262; experiment: MIC, microdilution method (9.1); assay type: cell-based; details: CIP5262, 18 h, read-out: MIC
Protocol: as §1

[5] = system: Haemophilus influenzae ATCC 49766; experiment: MIC, microdilution method (9.1); assay type: cell-based; details: ATCC49766; Haemophilus influenzae ATCC 49766; 10% sheep blood, 5% CO2; 18 h; read-out: MIC
Protocol: as §1

[6] = system: Pseudomonas aeruginosa CIP 5933; experiment: MIC, microdilution method (9.1); assay type: cell-based; details: CIP5933, 18 h, read-out: MIC
Protocol: as §1

[7] = system: Listeria innocua CIP 80.11; experiment: MIC, microdilution method (9.1); assay type: cell-based; details: CIP80, 18 h, read-out: MIC
Protocol: as §1

[8] = system: Escherichia coli ATCC 25922; experiment: MIC, microdilution method (9.1); assay type: cell-based; details: ATCC25922, 18 h
Protocol: as §1

[9] = system: Klebsiella pneumoniae API ATCC 35657; experiment: MIC, microdilution method (9.1); assay type: cell-based; details: ATCC35657, 18 h, read-out: MIC
Protocol: as §1

[10] = system: Serratia marcescens CIP 103551; experiment: MIC, microdilution method (9.1); assay type: cell-based; details: CIP103551, 18 h
Protocol: as §1

S. pneumoniae ATCC 49619 = experiment: MIC, microdilution method (9.1); assay type: cell-based; details: Streptococcus pneumoniae, ATCC49619, 10% sheep blood, 5% CO2, 18 h
Protocol: as §1

[11] = system: S. aureus CIP 65.25 (MRSA); experiment: MIC, microdilution method (9.1); assay type: cell-based, Staphylococcus aureus; details: Staphylococcus aureus, read after 18 h, read-out: MIC
Protocol: as §1

S. aureus ATCC 29213 = experiment: MIC, microdilution method (9.1); assay type: cell-based, Staphylococcus aureus; details: Staphylococcus aureus, ATCC29213, read after 18 h, read-out: MIC
Protocol: as §1

S. aureus ATCC 9144 = experiment: MIC, microdilution method (9.1); assay type: cell-based, Staphylococcus aureus; details: Staphylococcus aureus, ATCC9144, read after 18 h, read-out: MIC
Protocol: as §1

S. aureus ATCC 25923 = experiment: MIC, microdilution method (9.1); assay type: cell-based, Staphylococcus aureus; details: Staphylococcus aureus, ATCC25923, read after 18 h, read-out: MIC
Protocol: as §1

[12] = system: S. aureus ATCC 106414 (VISA); experiment: MIC, microdilution method (9.1); assay type: cell-based, Staphylococcus aureus; details: Staphylococcus aureus, read after 18 h, read-out: MIC
Protocol: as §1

S. aureus ATCC 6538 = experiment: MIC, microdilution method (9.1); assay type: cell-based, Staphylococcus aureus; details: Staphylococcus aureus, ATCC6538, read after 18 h, read-out: MIC
Protocol: as §1

S. aureus CIP 65.6 = experiment: MIC, microdilution method (9.1); assay type: cell-based, Staphylococcus aureus; details: Staphylococcus aureus, CIP65, read after 18 h, read-out: MIC
Protocol: as §1

[13] = system: S. aureus ATCC 33592 (MRSA); experiment: MIC, microdilution method (9.1); assay type: cell-based, Staphylococcus aureus; details: Staphylococcus aureus, read after 18 h, read-out: MIC
Protocol: as §1

S. aureus CIP 103428 = experiment: MIC, microdilution method (9.1); assay type: cell-based, Staphylococcus aureus; details: Staphylococcus aureus, CIP103428, read after 18 h, read-out: MIC
Protocol: as §1

S. aureus SA-1199B = experiment: MIC, microdilution method (9.1); assay type: cell-based, Staphylococcus aureus; details: Staphylococcus aureus, SA1199B, 18 h
Protocol: as §1

[14] = system: S. pyogenes (group A) CIP 104226; experiment: MIC, microdilution method (9.1); assay type: cell-based, Streptococcus pyogenes; details: Streptococcus pyogenes, CIP104226, 18 h, read-out: MIC
Protocol: as §1

[15] = system: HCT116 (human colon tumor); experiment: In vitro cytotoxicity; assay type: cell-based; details: read-out: % of cellular growth inhibition; for inhibition at 10 µM: HCT-116, 10^−5 M; for inhibition at 1 µM: HCT-116, 10^−6 M
Protocol: (§2) In vitro cytotoxicity was assayed on three cell lines—KB (human mouth carcinoma), MCR5 (human lung fibroblast) and HCT116 (human colon tumor). Results are presented in table IV as % of cellular growth inhibition in presence of 10^−5 M and 10^−6 M of the tested bis-indolic derivatives.

[16] = system: KB (human mouth carcinoma); experiment: In vitro cytotoxicity; assay type: cell-based; details: read-out: % of cellular growth inhibition; for inhibition at 10 µM: 10^−5 M; for inhibition at 1 µM: 10^−6 M
Protocol: as §2

[17] = system: MRC5 (human lung fibroblast); experiment: In vitro cytotoxicity; assay type: cell-based; details: read-out: % of cellular growth inhibition; for inhibition at 10 µM: 10^−5 M; for inhibition at 1 µM: 10^−6 M
Protocol: as §2

S. mitis CIP 103335 = experiment: MIC, microdilution method (9.1); assay type: cell-based, Streptococcus mitis; details: Streptococcus mitis, CIP103335, 18 h, read-out: MIC
Protocol: as §1

[18] = system: HCT116 (human colon tumor); experiment: In vitro cytotoxicity; assay type: cell-based; details: HCT-116, HCT116, from 100 μM to 0.005 μM in DMSO, duplicate
[19] = system: S. epidermidis ATCC 12228; experiment: MIC, microdilution method (9.1); assay type: cell-based, Staphylococcus epidermidis; details: Staphylococcus epidermidis, ATCC12228, read after 18 h, read-out: MIC
Protocol: as §1

[20] = system: S. epidermidis CIP 103627; experiment: MIC, microdilution method (9.1); assay type: cell-based, Staphylococcus epidermidis; details: Staphylococcus epidermidis, CIP103627, read after 18 h, read-out: MIC
Protocol: as §1

S. epidermidis CIP 81.55 = experiment: MIC, microdilution method (9.1); assay type: cell-based, Staphylococcus epidermidis; details: Staphylococcus epidermidis, CIP81, read after 18 h, read-out: MIC
Protocol: as §1

E. faecalis ATCC 29212 = experiment: MIC, microdilution method (9.1); assay type: cell-based, Enterococcus faecalis; details: Enterococcus faecalis, ATCC29212, 18 h, read-out: MIC
Protocol: as §1

Compound | MIC [1] [µg/mL] | MIC (S. pneumoniae ATCC 6303) [µg/mL] | MIC (E. faecium CIP 54.32) [µg/mL] | MIC [2] [µg/mL] | MIC [3] [µg/mL] | MIC [4] [µg/mL] | MIC [5] [µg/mL] | MIC [6] [µg/mL] | MIC [7] [µg/mL] | MIC [8] [µg/mL] | MIC [9] [µg/mL] | MIC [10] [µg/mL] | MIC (S. pneumoniae ATCC 49619) [µg/mL] | MIC [11] [µg/mL] | MIC (S. aureus ATCC 29213) [µg/mL] | MIC (S. aureus ATCC 9144) [µg/mL] | MIC (S. aureus ATCC 25923) [µg/mL] | MIC [12] [µg/mL] | MIC (S. aureus ATCC 6538) [µg/mL] | MIC (S. aureus CIP 65.6) [µg/mL] | also measured
CC(C)(C)OC(=O)NCC(NC(=O)c1c[nH]c2ccc(Br)cc12)c1c[nH]c2ccccc12 (centres unmarked) [Compound 3c, tert-Butyl [2-(1H-indol-3-yl)-2-(5-bromo-1H-indol-3-yl-carboxamido)ethyl]carbamate] | 64 (≈ 129 µM) | 32 (≈ 64.3 µM) | > 128 | > 128 | > 128 | 64 (≈ 129 µM) | > 128 | > 128 | > 128 | > 128 | > 128 | > 128 | 32 (≈ 64.3 µM) | 8 (≈ 16.1 µM) | 8 (≈ 16.1 µM) | 8 (≈ 16.1 µM) | 8 (≈ 16.1 µM) | 8 (≈ 16.1 µM) | 8 (≈ 16.1 µM) | 8 (≈ 16.1 µM) | MIC [13]: 8 µg/mL (≈ 16.1 µM); MIC (S. aureus CIP 103428): 8 µg/mL (≈ 16.1 µM); MIC (S. aureus SA-1199B): 8 µg/mL (≈ 16.1 µM); MIC [14]: 64 µg/mL (≈ 129 µM); inhibition at 10 µM [15]: 42 ± 3%; inhibition at 1 µM [15]: 11%; inhibition at 10 µM [16]: 46 ± 8%; inhibition at 1 µM [16]: 0%; inhibition at 10 µM [17]: 16 ± 9%; inhibition at 1 µM [17]: 0%; MIC (S. mitis CIP 103335): 64 µg/mL (≈ 129 µM); IC50 ([18]; first value): 8.02 µM; IC50 ([18]; second value): 5.43 µM; MIC [19]: 8 µg/mL (≈ 16.1 µM); MIC [20]: 8 µg/mL (≈ 16.1 µM); MIC (S. epidermidis CIP 81.55): 8 µg/mL (≈ 16.1 µM); MIC (E. faecalis ATCC 29212): > 128 µg/mL
CC(C)(C)OC(=O)NCC(NC(=O)c1c[nH]c2ccc(Cl)cc12)c1c[nH]c2ccc(Cl)cc12 (centres unmarked) [Compound 6a, tert-Butyl 2-(5-chloro-1H-indol-3-yl)-2-(5-chloro-1H-indole-3-carboxamido)ethylcarbamate] | 64 (≈ 131 µM) | 32 (≈ 65.7 µM) | > 128 | > 128 | > 128 | 64 (≈ 131 µM) | > 128 | > 128 | > 128 | > 128 | > 128 | > 128 | 64 (≈ 131 µM) | 4 (≈ 8.21 µM) | ≤ 2 | 4 (≈ 8.21 µM) | 4 (≈ 8.21 µM) | 4 (≈ 8.21 µM) | 4 (≈ 8.21 µM) | 4 (≈ 8.21 µM) | MIC [13]: 4 µg/mL (≈ 8.21 µM); MIC (S. aureus CIP 103428): 4 µg/mL (≈ 8.21 µM); MIC (S. aureus SA-1199B): 4 µg/mL (≈ 8.21 µM); MIC [14]: 64 µg/mL (≈ 131 µM); inhibition at 10 µM [15]: 80 ± 9%; inhibition at 1 µM [15]: 0%; inhibition at 10 µM [16]: 87 ± 6%; inhibition at 1 µM [16]: 4%; inhibition at 10 µM [17]: 82 ± 4%; inhibition at 1 µM [17]: 0%; MIC (S. mitis CIP 103335): 64 µg/mL (≈ 131 µM); IC50 ([18]; first value): 4.35 µM; IC50 ([18]; second value): 3.79 µM; MIC [19]: 4 µg/mL (≈ 8.21 µM); MIC [20]: 4 µg/mL (≈ 8.21 µM); MIC (S. epidermidis CIP 81.55): 4 µg/mL (≈ 8.21 µM); MIC (E. faecalis ATCC 29212): > 128 µg/mL
